Experimental data as given in US11352604B2, “Method of making cardiomyocytes from human pluripotent cells” (Wisconsin Alumni Research Foundation, priority 2016, dated 2022).

Tested on: hPSC-CMs
Assay: Bottom-up label-free quantitative proteomics, day 30 hPSC-CMs from pI:C-treated vs untreated progenitors
Format: cell-based, human
Procedure: Frozen CM pellets from day 30 in the H9 cTnT-GFP reporter cell line with or without pI:C treatment were washed with Ca^2+-free DPBS and centrifuged at 10,000 g for 10 min and the wash solvent was removed. 10 μl of 4 M urea, 0.5 M ammonium bicarbonate, 1 mM DTT, 10 mM L-methionine was added to the each pellet, and the pellets were vortexed and sonicated for 5 min, followed by incubation with shaking at 50° C. for 10 min. ProteaseMax™ surfactant was added to a final concentration of 0.04% and the pellets were vortexed and incubated at 37° C. for 10 min. 30 μl of water was added to the pellets, and the pellets were incubated at 80° C. for 20 min. After centrifugation at 16,000 g for 10 min, the supernatant was collected for Bradford assay to determine protein concentration. All samples were diluted to 800 ng/μl using 1 M urea and 125 mM ammonium bicarbonate, and 50 μl of the extract was reduced with 10 mM DTT for 30 min at 37° C., followed by alkylation with 25 mM Iodoacetamide for 30 min at room temperature in dark. The pH of the samples were tested to make sure the pH was between 7-8 and Trypsin Gold (Promega®) was added to a final trypsin to substrate ratio of 1:50 and incubated at 37° C. for overnight (16 hrs). Acetic acid was added to a final concentration of 5% (pH˜3) and the samples were centrifuged at 16,000 g for 30 min prior to LC-MS analysis.
Label-free quantitative proteomics analysis was performed using a high-resolution q-TOF mass spectrometer (Impact II, Bruker Daltonics). 3.6 μg of the protein digest were injected to a C18 (New Objective) trapping column for desalting at a flow rate of […] for 5 minutes. The peptides were separated on a 250 mm PicoFrit capillary column packed with 1.9 μm, 175 A Hypersil Gold aQ C18 particles (New Objective) at a flow rate of 300 nl/min by a gradient of 5-45% mobile phase B (0.1% formic acid in acetonitrile) (mobile phase A: 0.1% formic acid in water). The capillary column tip was customized to fit into the CaptiveSpray nanoESI source (Bruker Daltonics) for direct delivery of samples to the mass spectrometer. The most abundant 30 ions were selected for fragmentation by tandem MS (MS/MS) with an active (dynamic) exclusion time of 45 sec. The control group with and without pI:C treatment were analyzed with 5 and 6, respectively, biological replicates. Each sample was analyzed with 3 injection replicates. Protein identification and quantification were performed using the MaxQuant v1.5.7. Proteins were considered identified when at least 1 unique peptide was identified in at least 2 of the biological replicates. Label-free protein quantification was performed by first normalizing the intensity of the proteins (measured by both unique and razer peptides) to the median intensity of the same dataset, and the maximum and minimum of all the non-zero values (if more than 5 values are non-zero) were removed prior to averaging the datasets from the same group. […] Protein-protein interaction analysis was performed using the STRING database.

[1] = p<0.05 and >50% change, about 2,600 proteins detected

Question: How did the “number of proteins significantly downregulated” value [1] turn out when polyinosinic-polycytidylic acid [pI:C] was run?
Answer: 100 proteins

Question: And the “number of proteins significantly upregulated” value [1]?
Answer: 168 proteins

Question: What about the Fold change (protein ABHD10) of the same substance?
Answer: 2.205

Question: And the Fold change (protein ACSF2)?
Answer: 1.971

Question: And the Fold change (protein AGK)?
Answer: 2.084

Question: What about the Fold change (protein AIFM1) of the same substance?
Answer: 2.224

Question: And the Fold change (protein AK4)?
Answer: 0.122

Question: What about the Fold change (protein AKAP12) of the same substance?
Answer: 0.2108

Question: What about the Fold change (protein ALDH18A1) of the same substance?
Answer: 0.259

Question: What about the Fold change (protein ARL6IP1) of the same substance?
Answer: 0.2711

Question: And the Fold change (protein ATP5F1)?
Answer: 3.556

Question: And the Fold change (protein ATP6V1F)?
Answer: 0.284

Question: And the Fold change (protein BMP1)?
Answer: 2.714

Question: And the Fold change (protein C5orf24)?
Answer: 0.2927

Question: And the Fold change (protein CALD1)?
Answer: 0.3099

Question: What about the Fold change (protein CAPZA1) of the same substance?
Answer: 0.3292

Question: And the Fold change (protein CBWD1)?
Answer: 0.3341

Question: What about the Fold change (protein CDC37) of the same substance?
Answer: 0.3347

Question: And the Fold change (protein CDK9)?
Answer: 1.954

Question: What about the Fold change (protein CDKN1B) of the same substance?
Answer: 0.3393

Question: What about the Fold change (protein CFC1, CFC1B) of the same substance?
Answer: 2.61

Question: And the Fold change (protein CISD1)?
Answer: 6.047

Question: What about the Fold change (protein CLNS1A) of the same substance?
Answer: 0.3492

Question: What about the Fold change (protein CLPX) of the same substance?
Answer: 3.1174

Question: What about the Fold change (protein COL1A2) of the same substance?
Answer: 0.3554

Question: And the Fold change (protein COL2A1)?
Answer: 4.221

Question: And the Fold change (protein COL3A1)?
Answer: 0.3719

Question: And the Fold change (protein COL18A1)?
Answer: 0.3541

Question: What about the Fold change (protein CPS1) of the same substance?
Answer: 0.3857

Question: And the Fold change (protein CRLF3)?
Answer: 0.3949

Question: What about the Fold change (protein CYB5R3) of the same substance?
Answer: 2.279

Question: What about the Fold change (protein DBT) of the same substance?
Answer: 71.68

Question: And the Fold change (protein DCXR)?
Answer: 1.952

Question: And the Fold change (protein DKC1)?
Answer: 0.3962

Question: And the Fold change (protein DSG2)?
Answer: 0.3991

Question: And the Fold change (protein DYNLL1)?
Answer: 0.407

Question: What about the Fold change (protein EDC4) of the same substance?
Answer: 0.4111

Question: And the Fold change (protein EEF1B2)?
Answer: 0.416

Question: And the Fold change (protein EIF3A)?
Answer: 0.4235

Question: What about the Fold change (protein EIF3K) of the same substance?
Answer: 0.4335

Question: What about the Fold change (protein ELAC2) of the same substance?
Answer: 0.4539

Question: What about the Fold change (protein EMC1) of the same substance?
Answer: 3.674

Question: And the Fold change (protein EPN1)?
Answer: 2.525

Question: What about the Fold change (protein EPS15L1) of the same substance?
Answer: 2.414

Question: What about the Fold change (protein ERLIN2) of the same substance?
Answer: 2.026

Question: And the Fold change (protein EXOSC6)?
Answer: 0.4623

Question: And the Fold change (protein FABP5)?
Answer: 0.4749

Question: What about the Fold change (protein FLNA) of the same substance?
Answer: 0.4757

Question: And the Fold change (protein FLNB)?
Answer: 0.4767

Question: And the Fold change (protein FUBP1)?
Answer: 0.484

Question: And the Fold change (protein H6PD)?
Answer: 0.4845

Question: And the Fold change (protein HEATR6)?
Answer: 0.4857

Question: What about the Fold change (protein HEBP2) of the same substance?
Answer: 0.4867

Question: And the Fold change (protein HIST1H2AJ)?
Answer: 4.696

Question: And the Fold change (protein HMGCS1)?
Answer: 0.5003

Question: And the Fold change (protein HSDL1)?
Answer: 2.135

Question: What about the Fold change (protein IMMT) of the same substance?
Answer: 2.059

Question: And the Fold change (protein IQGAP1)?
Answer: 0.5083

Question: And the Fold change (protein ISOC1)?
Answer: 0.5114

Question: And the Fold change (protein ITM2B)?
Answer: 2.861

Question: What about the Fold change (protein KLC4) of the same substance?
Answer: 0.5119

Question: And the Fold change (protein KRT18, KRT35)?
Answer: 0.5128

Question: What about the Fold change (protein KRT19) of the same substance?
Answer: 0.5211

Question: And the Fold change (protein LAMA1)?
Answer: 2.03

Question: And the Fold change (protein LGALS1)?
Answer: 0.5211

Question: And the Fold change (protein LMCD1)?
Answer: 0.5226

Question: What about the Fold change (protein LNP) of the same substance?
Answer: 2.183

Question: And the Fold change (protein LRRC59)?
Answer: 0.5235

Question: And the Fold change (protein MAP2K4)?
Answer: 2.414

Question: What about the Fold change (protein MEST) of the same substance?
Answer: 0.5333

Question: And the Fold change (protein MRPS22)?
Answer: 1.976

Question: What about the Fold change (protein MT-ATP8) of the same substance?
Answer: 2.244

Question: And the Fold change (protein MTCH2)?
Answer: 1.99

Question: What about the Fold change (protein MYL6) of the same substance?
Answer: 0.534

Question: And the Fold change (protein MYO9B)?
Answer: 2.112

Question: What about the Fold change (protein NDUFA4) of the same substance?
Answer: 2.128

Question: And the Fold change (protein NGLY1)?
Answer: 0.5359

Question: And the Fold change (protein NIT2)?
Answer: 0.5435

Question: And the Fold change (protein NNT)?
Answer: 1.994

Question: And the Fold change (protein NSDHL)?
Answer: 2.081

Question: What about the Fold change (protein NUP85) of the same substance?
Answer: 2.249

Question: And the Fold change (protein OGFR)?
Answer: 0.5517

Question: What about the Fold change (protein ORF1) of the same substance?
Answer: 2.257

Question: What about the Fold change (protein P4HB) of the same substance?
Answer: 0.5531

Question: What about the Fold change (protein PCCA) of the same substance?
Answer: 2.032

Question: What about the Fold change (protein PDLIM1) of the same substance?
Answer: 0.5561

Question: What about the Fold change (protein PDLIM3) of the same substance?
Answer: 0.557

Question: And the Fold change (protein PHB2)?
Answer: 1.952

Question: What about the Fold change (protein RAC1) of the same substance?
Answer: 2.128

Question: And the Fold change (protein RAD54L2)?
Answer: 4.857

Question: And the Fold change (protein RRAS)?
Answer: 3.82

Question: What about the Fold change (protein SLC25A1) of the same substance?
Answer: 2.333

Question: What about the Fold change (protein SLC25A3) of the same substance?
Answer: 2.195

Question: What about the Fold change (protein SLC25A12) of the same substance?
Answer: 1.968

Question: What about the Fold change (protein SMG7) of the same substance?
Answer: 3.817

Question: What about the Fold change (protein THBS1, THBS3, THBS2) of the same substance?
Answer: 3.483

Question: What about the Fold change (protein TMEM65) of the same substance?
Answer: 2.197

Question: What about the Fold change (protein UACA) of the same substance?
Answer: 1.958

Question: And the Fold change (protein UBE4A)?
Answer: 5.484

Question: And the Fold change (protein UQCRB)?
Answer: 3.665

Question: And the Fold change (protein USMG5)?
Answer: 2.085

Question: What about the Fold change (protein XPO7) of the same substance?
Answer: 2.231
